Measurements published in the NIST ThermoML archive (doi:10.1021/je049912x).
± gives the expanded uncertainty stated by the source.

Legend:
[1] = 101.33 kPa, Liquid
[2] = xn = mol fraction of the nth substance listed; details: 101.33 kPa, Liquid

CCCCO [butan-1-ol]
[1]
Details	mass density [kg/m3]	speed of sound [m/s]	viscosity [mPa·s]
298.15 K	807.7 ± 3	1238 ± 10	2.564 ± 0.12
308.15 K	800.1 ± 3.4	1211 ± 10	2 ± 0.093

CCCCO [butan-1-ol] + CCc1ccccc1
[2], x2 = 0
Details	mass density [kg/m3]	speed of sound [m/s]	viscosity [mPa·s]
298.15 K	807.7 ± 3	1238 ± 10	2.564 ± 0.12
308.15 K	800.1 ± 3.4	1211 ± 10	2 ± 0.093

CCO [ethanol]
[1]
Details	mass density [kg/m3]	speed of sound [m/s]	viscosity [mPa·s]
298.15 K	785.5 ± 2.9	1160 ± 10	1.117 ± 0.027
308.15 K	776.3 ± 3.2	1112 ± 9	0.935 ± 0.024

CCO [ethanol] + CCc1ccccc1
[2], x2 = 0
Details	mass density [kg/m3]	speed of sound [m/s]	viscosity [mPa·s]
298.15 K	785.5 ± 2.9	1160 ± 10	1.117 ± 0.027
308.15 K	776.3 ± 3.2	1112 ± 9	0.935 ± 0.024

CCc1ccccc1 [ethylbenzene]
[1]
Details	mass density [kg/m3]	speed of sound [m/s]	viscosity [mPa·s]
298.15 K	862 ± 3.3	1312 ± 11	0.628 ± 0.017
308.15 K	855.5 ± 3.6	1276 ± 10	0.553 ± 0.015

CCc1ccccc1 [ethylbenzene] + CCCCO
[2]
Details	mass density, 298.15 K [kg/m3]	mass density, 308.15 K [kg/m3]	speed of sound, 298.15 K [m/s]	speed of sound, 308.15 K [m/s]	viscosity, 298.15 K [mPa·s]	viscosity, 308.15 K [mPa·s]
x1 = 0.1035	816.7 ± 3.1	808.9 ± 3.4	1246 ± 10	1217 ± 10	1.985 ± 0.092	1.569 ± 0.074
x1 = 0.205	821.2 ± 3.1	815.3 ± 3.4	1256 ± 10	1223 ± 10	1.565 ± 0.074	1.253 ± 0.061
x1 = 0.3221	828.1 ± 3.1	822 ± 3.5	1264 ± 10	1229 ± 10	1.236 ± 0.06	–
x1 = 0.365	831.1 ± 3.1	824.5 ± 3.5	1267 ± 10	1231 ± 10	1.147 ± 0.056	0.941 ± 0.047
x1 = 0.5071	839.6 ± 3.2	832.1 ± 3.5	1277 ± 10	1239 ± 10	0.916 ± 0.046	0.765 ± 0.04
x1 = 0.6494	845.7 ± 3.2	839.1 ± 3.5	1288 ± 11	1249 ± 10	0.764 ± 0.039	0.651 ± 0.035
x1 = 0.8136	854.5 ± 3.3	846 ± 3.6	1301 ± 11	1262 ± 10	0.693 ± 0.036	0.577 ± 0.031
x1 = 0.91	858.6 ± 3.3	852.6 ± 3.6	1307 ± 11	1268 ± 10	0.649 ± 0.034	0.566 ± 0.031
x1 = 1	862 ± 3.3	855.5 ± 3.6	1312 ± 11	1276 ± 10	0.628 ± 0.034	0.553 ± 0.03

CCc1ccccc1 [ethylbenzene] + CCCO
[2]
Details	mass density, 298.15 K [kg/m3]	mass density, 308.15 K [kg/m3]	speed of sound, 298.15 K [m/s]	speed of sound, 308.15 K [m/s]	viscosity, 298.15 K [mPa·s]	viscosity, 308.15 K [mPa·s]
x1 = 0.109	811.4 ± 3	803.7 ± 3.4	1227 ± 10	1194 ± 10	1.543 ± 0.038	1.226 ± 0.031
x1 = 0.1677	817.3 ± 3.1	807.1 ± 3.4	1233 ± 10	1202 ± 10	1.375 ± 0.034	1.098 ± 0.028
x1 = 0.3777	828.5 ± 3.1	823.5 ± 3.5	1257 ± 10	1224 ± 10	0.976 ± 0.025	0.809 ± 0.021
x1 = 0.5006	837.9 ± 3.1	833.1 ± 3.5	1266 ± 10	1233 ± 10	0.839 ± 0.022	0.702 ± 0.019
x1 = 0.6429	845.1 ± 3.2	839 ± 3.5	1277 ± 10	1245 ± 10	0.712 ± 0.019	0.616 ± 0.017
x1 = 0.8074	853.3 ± 3.3	844.3 ± 3.6	1287 ± 11	1258 ± 10	0.638 ± 0.017	0.562 ± 0.016
x1 = 0.8951	857 ± 3.3	850 ± 3.6	1299 ± 11	1264 ± 10	0.606 ± 0.017	0.542 ± 0.015
x1 = 1	862 ± 3.3	855.5 ± 3.6	1312 ± 11	1276 ± 10	0.628 ± 0.017	0.553 ± 0.015

CCc1ccccc1 [ethylbenzene] + CCO
[2]
Details	mass density, 298.15 K [kg/m3]	mass density, 308.15 K [kg/m3]	speed of sound, 298.15 K [m/s]	speed of sound, 308.15 K [m/s]	viscosity, 298.15 K [mPa·s]	viscosity, 308.15 K [mPa·s]
x1 = 0.0712	795 ± 2.9	789.6 ± 3.3	1170 ± 10	1133 ± 10	1.026 ± 0.026	0.856 ± 0.022
x1 = 0.1551	807.2 ± 3	801.6 ± 3.3	1185 ± 10	1155 ± 10	0.947 ± 0.024	0.788 ± 0.02
x1 = 0.2404	817.6 ± 3	811.7 ± 3.4	1203 ± 10	1173 ± 10	0.864 ± 0.022	0.719 ± 0.019
x1 = 0.352	827 ± 3.1	820 ± 3.4	1228 ± 10	1195 ± 10	0.789 ± 0.02	0.656 ± 0.018
x1 = 0.4053	836 ± 3.2	823.2 ± 3.5	1235 ± 10	1203 ± 10	0.764 ± 0.02	0.629 ± 0.017
x1 = 0.553	842.3 ± 3.2	835.8 ± 3.5	1261 ± 10	1223 ± 10	0.684 ± 0.018	0.587 ± 0.016
x1 = 0.7382	853.6 ± 3.3	842.8 ± 3.6	1278 ± 10	1250 ± 10	0.639 ± 0.017	0.548 ± 0.015
x1 = 0.8805	858.5 ± 3.3	851.2 ± 3.6	1291 ± 11	1266 ± 10	0.623 ± 0.017	0.544 ± 0.015
x1 = 1	862 ± 3.3	855.5 ± 3.6	1312 ± 11	1276 ± 10	0.628 ± 0.017	0.553 ± 0.015

CCCO [propan-1-ol]
[1]
Details	mass density [kg/m3]	speed of sound [m/s]	viscosity [mPa·s]
298.15 K	799.6 ± 3	1213 ± 10	2.042 ± 0.049
308.15 K	792 ± 3.3	1182 ± 10	1.565 ± 0.039

CCCO [propan-1-ol] + CCc1ccccc1
[2], x2 = 0
Details	mass density [kg/m3]	speed of sound [m/s]	viscosity [mPa·s]
298.15 K	799.6 ± 3	1213 ± 10	2.042 ± 0.049
308.15 K	792 ± 3.3	1182 ± 10	1.565 ± 0.039
